Key:
Type in all cases: cell-based
SNU5 = test: Growth inhibition of gastric cancer cells SNU5 (CCK-8); settings: Homo sapiens, SNU-5, half inhibitory concentration, 72 hours
Description: (§1) Inoculate gastric cancer cells (SNU5 or MKN45) into a 96 well plate at a concentration of […], with 100 μl added to each well. Incubate for 30 minutes. Observe the cell status under a microscope. Prepare compounds, weigh a certain amount of the series compounds or reference drug cabozantinib of this patent, first prepare a high concentration mother liquor with pure DMSO, and use gradient dilution method to prepare a concentration of 200 μM, 60 μM, 20 μM, 6 μM, 2 μM, 600 nM, 200 nM, 0 nM drug solution, shake to make it fully mixed. The control group was prepared with cabozantinib using the same solvent and method.
(§2) After preparation, add 1 μl of drug solution to each well of the 96 well plate, and then add 100 μl of culture medium. Repeat each dose three times. Gently shake to allow the cells and medication to come into full contact and incubate in the incubator for 72 hours. 72 hours later, remove and color with CCK-8 reagent kit. Add 20 μl of CCK-8 reagent to each well, gently shake well, and incubate in the incubator for 1 hour. After 1 hour, remove and measure the absorbance of each well using an enzyme-linked immunosorbent assay (ELISA) reader at a wavelength of 450 nm.
(§3) According to the formula: Cell growth inhibition rate=[1−(absorbance of experimental group absorbance of culture medium control group)/(absorbance of blank control group−absorbance of culture medium control group)]×100%. It can be concluded that the compound has the ability to inhibit the growth of gastric cancer cells at the current dose and time.
(§4) Draw a graph based on the gradient of concentration and use GraphPad Prism 9 software (GraphPad Software, La Jolla, CA) to calculate the maximum inhibitory concentration (IC50) at 50%.
(§5) Referring to steps 1 and 2 of this embodiment, the inhibitory effect of the compound of the present invention on the growth of cancer cells and the degradation effect of target proteins were measured, and the following results were obtained (see Table 2 below).
(§6) The growth inhibitory effects of the compound of the present invention on tumor cell lines MKN45 and SNU5 were measured. The activity is expressed as half inhibitory concentration (C50). The results are shown in Table 2 below; When the half inhibitory concentration is less than or equal to 100 nM, the compound activity is labeled as “++++”; When the half inhibitory concentration is greater than 100 nM and less than 500 nM, the compound activity is labeled as […] and less than 1000 nM, the compound activity is labeled as “++”; When the half inhibitory concentration is greater than 1000 nM and less than 3000 nM, the compound activity is marked as “+”; When the half inhibitory concentration is greater than 3000 nM, the compound activity is marked as […]

DDR1 = DDR1 (Homo sapiens, UniProt Q08345); test: Degradation of DDR1 in tumor cell MKN45 (Western blot); set-up: The degradation activity of the compounds against DDR1 in the MKN45 cell line; endogenous in cells; host or cells: MKN45; settings: MKN-45, maximum degradation percentage, MKN45 cells, 24 hours
Sequence of DDR1 (Q08345 19-913): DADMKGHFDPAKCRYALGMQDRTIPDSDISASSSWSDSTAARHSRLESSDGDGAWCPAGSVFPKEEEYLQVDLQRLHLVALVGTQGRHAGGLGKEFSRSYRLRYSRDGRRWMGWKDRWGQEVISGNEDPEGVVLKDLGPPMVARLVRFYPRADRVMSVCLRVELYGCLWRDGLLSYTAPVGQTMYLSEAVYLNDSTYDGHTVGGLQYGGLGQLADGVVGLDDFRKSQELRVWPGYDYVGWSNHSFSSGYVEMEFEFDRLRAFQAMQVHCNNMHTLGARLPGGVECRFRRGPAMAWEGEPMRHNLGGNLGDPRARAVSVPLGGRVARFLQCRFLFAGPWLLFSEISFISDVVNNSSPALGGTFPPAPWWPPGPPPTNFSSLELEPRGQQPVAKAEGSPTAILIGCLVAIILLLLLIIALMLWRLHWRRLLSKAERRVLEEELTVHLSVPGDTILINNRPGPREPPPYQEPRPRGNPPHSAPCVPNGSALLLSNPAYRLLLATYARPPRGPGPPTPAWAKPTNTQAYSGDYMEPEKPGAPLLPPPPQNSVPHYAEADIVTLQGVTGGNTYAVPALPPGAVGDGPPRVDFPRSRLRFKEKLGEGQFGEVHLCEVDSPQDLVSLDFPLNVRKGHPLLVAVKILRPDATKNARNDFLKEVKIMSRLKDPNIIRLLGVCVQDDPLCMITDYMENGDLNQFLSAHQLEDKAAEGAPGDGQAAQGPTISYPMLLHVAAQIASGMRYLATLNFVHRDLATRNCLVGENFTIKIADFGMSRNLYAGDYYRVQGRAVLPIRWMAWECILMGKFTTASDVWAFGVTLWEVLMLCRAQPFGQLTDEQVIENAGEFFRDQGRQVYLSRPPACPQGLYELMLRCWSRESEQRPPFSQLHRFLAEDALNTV
Description: Western blot experiment: Take gastric cancer cells (MKN45) and inoculate them into a 6-well plate at a concentration of […], adding 2 ml to each well and incubating for 24 hours.
The next day, observe the cells under a microscope to confirm their status. Prepare compounds, weigh a certain amount of the series compounds or reference drug cabozantinib from this patent, first prepare a high concentration mother liquor with pure DMSO, and use gradient dilution method to prepare compound concentrations of 2 mM, 200 μM, 100 μM, 20 μM, 2 μM, 200 nM, and 0 nM. The final concentration of DMSO is 0.5%. Shake to thoroughly mix. Add 10 μl of solution to each well. After incubation for 24 hours, remove the cells and use a pipette to aspirate the suspended cells into a 1.5 ml centrifuge tube. Centrifuge at 5000 rpm for 10 minutes to precipitate the cells. Carefully remove the cell precipitate from the culture medium, add 1 ml of PBS and shake slightly. After repeated cleaning for 3 times, dry the residue. Add 150 μl of RIPA lysate pre mixed with 1% PMSF, blow to allow the lysate to fully contact the cells, and incubate on ice for 10 minutes. Centrifuge at 12000 rpm for 10 minutes, extract the supernatant, use the BCA protein quantification kit to determine and homogenize the sample loading.
Mix BCA-A in a 50:1 ratio Prepare working solution with B solution, dilute the sample by 5 times, then pipette 20 μl onto a 96 well ELISA plate. Add 200 μl of pre mixed BCA working solution and incubate at 37° C. for 20 minutes. Measure the A562 nm absorbance value using an ELISA reader and substitute it into the protein standard curve formula to obtain the sample concentration. After calculating the required volume for loading […] of sample, divide the sample into 1.5 ml centrifuge tubes. Add 10 μl of sample buffer to each tube and mix well. Heat in a 95° C. metal bath for 5 minutes to denature the protein.
Take 4-20% gradient pre adhesive and fix it on the adhesive rack. Add electrophoresis solution to the slot and remove the comb, Marker and protein samples were loaded, and after 30 minutes of electrophoresis at 80V, the voltage was adjusted to 120V for electrophoresis, The marker band stops electrophoresis at the forefront of the gel. Take out the adhesive block and cut it to the appropriate size, The PVDF membrane was cut and activated in methanol, and after activation, the PVDF membrane was equilibrated in a membrane transfer equilibrium solution for 1 minute. Using sponge pads The sequence of PVDF film, adhesive, and sponge pad is placed in the splint and placed in the eBlot equipment for rapid wet rotation. Remove the membrane and seal it in 5% skim milk powder dissolved in 1×TBST for 1 hour. Cut the membrane according to the molecular weight of the target protein and internal reference protein, and place it in primary antibody diluted with 1×TBST. Shake overnight at 4° C.
The next day, transfer the band to 1×TBST for 3 washes, then add a specific dilution of the secondary antibody and shake it for 1.5 hours. Transfer the band again to 1×TBST for 3 washes, prepare ECL color solution, place the membrane in the imaging system, cover the surface with ECL color solution, and take photos of the membrane using the imaging system.
Using the SHST analysis system to analyze the results, measure the grayscale values of each band of the target protein and internal reference protein. Normalize the grayscale values of the target protein/corresponding lane GAPDH grayscale values, and perform quantitative analysis according to the protein amount=experimental group grayscale value/blank control group grayscale value.
The activity of the compound of the present invention in degrading DDR in tumor cell line MKN45 was measured. […]

MKN45 = test: Growth inhibition of gastric cancer cells MKN45 (CCK-8); settings: Homo sapiens, MKN-45, half inhibitory concentration, 72 hours
Description: as §1, §2, §3, §4, §5, §6

Structure (SMILES)	IC50 (SNU5)	Dmax (DDR1)	IC50 (MKN45)
O=C1CCC(N2Cc3cc(NC(=O)CN4C5CC4CN(CC4CCN(c6cc7nccc(Oc8ccc(NC(=O)C9(C(=O)Nc%10ccc(F)cc%10)CC9)cc8)c7cc6F)CC4)C5)ncc3C2=O)C(=O)N1 (stereo not drawn) [TPD12088]	≤ 100 nM	65 to 75%	100 to 500 nM
COc1cc2c(Oc3ccc(NC(=O)C4(C(=O)Nc5ccc(F)cc5)CC4)cc3)ccnc2cc1N1CCC(CN2C[C@H]3C[C@@H]2CN3CCCNc2cc3c(cn2)C(=O)N(C2CCC(=O)NC2=O)C3)CC1 (stereo partly drawn) [TPD12116]	≤ 100 nM	75 to 85%	≤ 100 nM
COc1cc2c(Oc3ccc(NC(=O)C4(C(=O)Nc5ccc(F)cc5)CC4)cc3)ccnc2cc1N1CCC(CN2CC3CC(C2)N3CCCNc2cc3c(cn2)C(=O)N(C2CCC(=O)NC2=O)C3)CC1 (stereo not drawn) [TPD12118]	≤ 100 nM	65 to 75%	≤ 100 nM
COc1cc2c(Oc3ccc(NC(=O)C4(C(=O)Nc5ccc(F)cc5)CC4)cc3)ccnc2cc1N1CCC(CN2C[C@H]3C[C@@H]2CN3CCC(=O)Nc2cc3c(cn2)C(=O)N(C2CCC(=O)NC2=O)C3)CC1 (stereo partly drawn) [TPD12110]	≤ 100 nM	75 to 85%	≤ 100 nM
COc1cc2c(Oc3ccc(NC(=O)C4(C(=O)Nc5ccc(F)cc5)CC4)cc3)ccnc2cc1N1CCC(CN2CCC(C(=O)N[C@H](C(=O)N3C[C@H](O)C[C@H]3C(=O)NCc3ccc(-c4scnc4C)cc3)C(C)(C)C)CC2)CC1 [TPD5402b]	≤ 100 nM	65 to 75%	≤ 100 nM
COc1cc2c(Oc3ccc(NC(=O)C4(C(=O)Nc5ccc(F)cc5)CC4)cc3)ccnc2cc1N1CCC(CN2C3CC2CN(CC(=O)Nc2cc4c(cn2)C(=O)N(C2CCC(=O)NC2=O)C4)C3)CC1 (stereo not drawn) [TPD12083]	≤ 100 nM	65 to 75%	≤ 100 nM
COc1cc2c(Oc3ccc(NC(=O)C4(C(=O)Nc5ccc(F)cc5)CC4)cc3)ccnc2cc1COCCN1CCC(OCCC(=O)N[C@H](C(=O)N2C[C@H](O)C[C@H]2C(=O)NCc2ccc(-c3scnc3C)cc2)C(C)(C)C)CC1 [TPD5305]	100 to 500 nM	65 to 75%	100 to 500 nM
O=C1CCC(N2Cc3c(C#CCCN4CC5CC(C4)N5CC4CCN(c5cc6nccc(Oc7ccc(NC(=O)C8(C(=O)Nc9ccc(F)cc9)CC8)cc7)c6cc5OC(F)(F)F)CC4)cccc3C2=O)C(=O)N1 (stereo not drawn) [TPD12150]	100 to 500 nM	65 to 75%	≤ 100 nM
COc1cc2c(Oc3ccc(NC(=O)C4(C(=O)Nc5ccc(F)cc5)CC4)cc3)ccnc2cc1N1CCC(CN2CCC(OCC(=O)N[C@H](C(=O)N3C[C@H](O)C[C@H]3C(=O)NCc3ccc(-c4scnc4C)cc3)C(C)(C)C)CC2)CC1 [TPD5407]	500 to 1000 nM	75 to 85%	100 to 500 nM
COc1cc2c(Oc3ccc(NC(=O)C4(C(=O)Nc5ccc(F)cc5)CC4)cc3)ccnc2cc1NC(=O)CCCN1CCC(CN2CCN(c3ccc(NC4CCC(=O)NC4=O)cc3)CC2)CC1 (stereo not drawn) [TPD5752m]	100 to 500 nM	> 85%	100 to 500 nM
COc1cc2c(Oc3ccc(NC(=O)C4(C(=O)Nc5ccc(F)cc5)CC4)cc3)ccnc2c(F)c1N1CCC(CN2C3CC2CN(CCC(=O)Nc2cccc4c2CN(C2CCC(=O)NC2=O)C4=O)C3)CC1 (stereo not drawn) [TPD12140]	≤ 100 nM	65 to 75%	≤ 100 nM
COc1cc2c(Oc3ccc(NC(=O)C4(C(=O)Nc5ccc(F)cc5)CC4)cc3)ccnc2cc1COCCN1CCN(C(=O)CNc2cccc3c2C(=O)N(C2CCC(=O)NC2=O)C3=O)CC1 (stereo not drawn) [TPD5317]	100 to 500 nM	65 to 75%	100 to 500 nM
C[C@@H](Oc1cc(-c2cnn(C3CCN(CCN4CCN(c5ccc6c(c5)C(=O)N(C5CCC(=O)NC5=O)C6=O)CC4)CC3)c2)cnc1N)c1c(Cl)ccc(F)c1Cl (stereo partly drawn) [TPD10041]	≤ 100 nM	> 85%	500 to 1000 nM

Now from value to compound:

IC50 (SNU5)	Dmax (DDR1)	IC50 (MKN45)	Structure (SMILES)
≤ 100 nM	65 to 75%	≤ 100 nM	COc1cc2c(Oc3ccc(NC(=O)C4(C(=O)Nc5ccc(F)cc5)CC4)cc3)ccnc2cc1N1CCC(CN2CCN(CCCc3cccc4c3CN(C3CCC(=O)NC3=O)C4=O)CC2)CC1 (stereo not drawn) [TPD5937]
100 to 500 nM	75 to 85%	100 to 500 nM	COc1cc2c(Oc3ccc(NC(=O)C4(C(=O)Nc5ccc(F)cc5)CC4)cc3)ccnc2cc1N1CCC(N2CCN(C(=O)CCOCC(=O)N[C@H](C(=O)N3C[C@H](O)C[C@H]3C(=O)NCc3ccc(-c4scnc4C)cc3)C(C)(C)C)CC2)CC1 [TPD5495]
100 to 500 nM	75 to 85%	≤ 100 nM	CNC(=O)c1ccc(-c2cnc3ncc(Cc4ccc5ncc(C(=O)N6CCC(CN7CCN(CC(=O)N[C@H](C(=O)N8C[C@H](O)C[C@H]8C(=O)NCc8ccc(-c9scnc9C)cc8)C(C)(C)C)CC7)CC6)cc5c4)n3n2)cc1F [TPD9006]
≤ 100 nM	< 50%	≤ 100 nM	COc1cc2nccc(Oc3ccc(NC(=O)C4(C(=O)Nc5ccc(F)cc5)CC4)cc3)c2cc1OC [cabozantinib, reference compound]
100 to 500 nM	65 to 75%	100 to 500 nM	COc1cc2c(Oc3ccc(NC(=O)C4(C(=O)Nc5ccc(F)cc5)CC4)cc3)ccnc2cc1NC(=O)CN1CCC(CN2CCN(c3ccc(N(C)C4CCC(=O)NC4=O)nc3F)CC2)CC1 (stereo not drawn) [TPD5760]
≤ 100 nM	75 to 85%	≤ 100 nM	O=C1CCC(N2Cc3cc(NC(=O)CN4C[C@@H]5C[C@H]4CN5CC4CCN(c5cc6nccc(Oc7ccc(NC(=O)C8(C(=O)Nc9ccc(F)cc9)CC8)cc7)c6cc5F)CC4)ncc3C2=O)C(=O)N1 (stereo partly drawn) [TPD12102]
≤ 100 nM	75 to 85%	100 to 500 nM	Cc1ncsc1-c1ccc(CNC(=O)[C@@H]2C[C@@H](O)CN2C(=O)[C@@H](NC(=O)CN2CCN(CC3CCN(C(=O)c4ccc(-c5cnc6ncc(Cc7ccc8ncccc8c7)n6n5)cc4F)CC3)CC2)C(C)(C)C)cc1 [TPD9004]

From patent publication US20240374738A1, “BIFUNCTIONAL COMPOUND CAPABLE OF DEGRADING RECEPTOR TYROSINE KINASE AND APPLICATION THEREOF” (TAIBIDI PHARMACEUTICAL TECHNOLOGY (SHIJIAZHUANG) CO., LTD., priority 2023, published 2024)
